From publication PMC2110886 (PLoS ONE, 2007)
“Also recorded” adds a separate entry of the source. Like-named read-outs stand apart in the source and are kept apart here.

Tests used:
[1] = test system: recombinant amantadine sensitive A/Vietnam/1203/04 (H5N1) virus; details: mice, lethal challenge, equivalent human therapeutic doses, ref Ilyushina, in press; cited from earlier work
[2] = Safety and tolerability (adverse events) in the crossover study; details: eight adverse events in total during the trial; 17 subjects
[3] = test system: all strains of influenza A and B tested, including H5N1; details: no reference given; cited from earlier work
[4] = test system: cytochrome P450 isoforms; design: method as in Tamiflu package insert; details: ref Tamiflu package insert; cited from earlier work
[5] = Steady-state plasma pharmacokinetics, open-label randomized three-way crossover study, drugs alone or in combination; details: for Tmax / half-life / AUC(0-t) / Cmax: human, in vivo; for effect of amantadine coadministration on PK (in words): oseltamivir 75 mg BID + amantadine 100 mg BID
[6] = cited from earlier work; for mean Cmax: twice daily oral dosing with 75 mg oseltamivir capsule; for mean Cmax / AUC0-12: ref Oseltamivir package insert; for AUC0-12: values reported earlier, 75 mg oseltamivir twice daily
[7] = design: method as in Symmetrel package insert; details: ref Symmetrel package insert, cited from earlier work
[8] = oseltamivir, combination therapy with amantadine 100 mg BID
[9] = oseltamivir, oseltamivir monotherapy 75 mg BID
[10] = oseltamivir carboxylate, combination therapy with amantadine 100 mg BID
[11] = oseltamivir carboxylate, oseltamivir monotherapy 75 mg BID
[12] = under fasted conditions, ref Tamiflu package insert
[13] = under fed conditions, ref Tamiflu package insert

For `CCOC(=O)C1=C[C@@H](OC(CC)CC)[C@H](NC(C)=O)[C@@H](N)C1` [Oseltamivir, oseltamivir, reference compound], the “animals protected from mortality” value [1] is given as 20%, the “number of adverse events reported, all mild” value [2] is given as “three” and the “effectiveness (in words)” value [3] is given as “effective against all strains of influenza A and B tested, including H5N1”. The “substrate for, or inhibitor of, cytochrome P450 isoforms” value [4] was “Neither oseltamivir nor oseltamivir carboxylate is a substrate for, or inhibitor of, cytochrome P450 isoforms; also recorded: Neither oseltamivir nor oseltamivir carboxylate is a substrate for”, the Tmax [5] was 0.85 h and the half-life [5] was 1.83 h. The AUC(0-t) ([5]; 75 mg) was 161 ng·h/mL, the Cmax ([5]; 75 mg) was 60.2 ng/mL and the Tmax ([5]; 75 mg) was 0.76 h. The half-life ([5]; 75 mg) was 1.85 h, the “effect of amantadine coadministration on PK (in words)” value [5] was “did not meaningfully affect” and the “apparent clearance, geometric mean” value [5, 8] was 505 L/h. For the same compound, the “apparent distribution volume, geometric mean” value (“apparent distribution volume” below) [5, 8] was 1329 L, the “apparent clearance, geometric mean” value [5, 9] was 465 L/h and the “apparent distribution volume” value [5, 9] was 1245 L. The “exposure to oseltamivir as share of the total exposure” value ([6]; after oral dosing, ref Tamiflu package insert) was “less than 5%”, the “share of absorbed oseltamivir eliminated by conversion to oseltamivir carboxylate” value ([6]; ref Tamiflu package insert) was > 90% and the “mean Cmax” value [6] was 65.2 ng/mL. The AUC0-12 [6] was 112 ng·h/mL.

For `CCC(CC)O[C@@H]1C=C(C(=O)O)C[C@H](N)[C@H]1NC(C)=O` [Oseltamivir carboxylate, oseltamivir carboxylate], the “substrate for, or inhibitor of, cytochrome P450 isoforms” value [4] is listed as “Neither oseltamivir nor oseltamivir carboxylate is a substrate for, or inhibitor of, cytochrome P450 isoforms; also recorded: Neither oseltamivir nor oseltamivir carboxylate is a substrate for”, the Tmax [5] is listed as 3.07 h and the half-life [5] is listed as 6.15 h. The AUC(0-t) ([5]; 75 mg) was 3430 ng·h/mL, the Cmax ([5]; 75 mg) was 407 ng/mL and the Tmax ([5]; 75 mg) was 3.22 h. The half-life ([5]; 75 mg) was 6.09 h, the “effect of amantadine coadministration on PK (in words)” value [5] was “did not meaningfully affect” and the “apparent clearance, geometric mean” value [5, 10] was 22.3 L/h. For the same compound, the “apparent distribution volume” value [5, 10] was 197 L, the “apparent clearance, geometric mean” value [5, 11] was 21.9 L/h and the “apparent distribution volume” value [5, 11] was 192 L. For the same compound, the “share of an oral dose reaching the systemic circulation as oseltamivir carboxylate” value ([6]; oral oseltamivir phosphate, ref Tamiflu package insert) was “At least 75%”, the “mean Cmax” value [6] was 348 ng/mL and the “area under the plasma concentration time curve” value [6, 12] was 6218 ng·h/mL. For the same compound, the peak plasma concentration [6, 12] was 551 ng/mL, the “area under the plasma concentration time curve” value [6, 13] was 6069 ng·h/mL and the peak plasma concentration [6, 13] was 441 ng/mL. For the same compound, the AUC0-12 [6] was 2719 ng·h/mL.

For `CC(=O)NC12CC3CC(CC(C3)C1)C2` [Acetylamantadine, acetylamantadine], the “plasma acetylamantadine as share of the concurrent amantadine plasma concentration” value ([7]; 5 of 12 healthy volunteers, 200 mg dose of amantadine) is listed as “up to 80%”, the “N-acetylated metabolite in human urine, share of the administered dose” value [7] is listed as 5-15% and the “detection of acetylamantadine in plasma” value ([7]; remaining seven of 12 volunteers) is listed as “not detected”. The “detection of acetylamantadine in plasma” value ([5]; current study, seventeen volunteers, LLOQ approximately 5.00 ng/mL) was “not detected”.
